Results on five compounds are retold here after patent US20260117071A1, “ICG LIPID DERIVATIVE, AND LIPID MICROPARTICLES EACH CONTAINING SAME” (Eisai R&D Management Co., Ltd., priority 2022, published 2026).

This data set can be described thus: Calculation of the molar extinction coefficient (absorption spectrum in ethanol). Conditions: absorbance at 790 nm, 5 μM in ethanol, optical path length 1 cm. The data set is classed as physicochemical. The procedure:
An ICG lipid solution, prepared by the dissolution of the particular ICG lipid derivative or ICG in ethanol to provide 5 μM in each case, was introduced into a cuvette with an optical path length of 1 cm, and the absorption spectrum at 230 to 1000 nm was measured using an Infinite M200 (Tecan). The absorption spectra in FIG. 5 were provided by subtracting the absorption spectra of ethanol from the absorbance at each wavelength.
The molar concentration used in the calculation of the molar extinction coefficient was itself calculated using a purity of 100% for the ICG lipid derivative and using the nonsalt form.

Take `CCCCCCCC/C=C\CCCCCCCC(=O)OCC(COP(=O)(O)OCCNC(=O)CCN1/C(=C/C=C/C=C/C=C/C2=[N+](CCCCS(=O)(=O)[O-])c3ccc4ccccc4c3C2(C)C)C(C)(C)c2c1ccc1ccccc21)OC(=O)CCCCCCC/C=C\CCCCCCCC` (centres unmarked) [ICG-DOPE, 4-(2-((1E,3E,5E,7E)-7-(3-(3-((2-(((2,3-bis(oleoyloxy)propoxy)oxidophosphoryl)oxy)ethyl)amino)-3-oxopropyl)-1,1-dimethyl-1,3-dihyro-2H-benzo[e]indol-2-ylidene)hepta-1,3,5-trien-1-yl)-1,1-dimethyl-1H-benzo[e]indol-3-ium-3-yl)butane-1-sulfonate, reference compound]: the “molar extinction coefficient ε” value is 165860 L/mol/cm.

`CCCCCCCCCCCCCCCCCCNC(=O)CCN1/C(=C/C=C/C=C/C=C/C2=[N+](CCC(=O)NCCCCCCCCCCCCCCCCCC)c3ccc4ccccc4c3C2(C)C)C(C)(C)c2c1ccc1ccccc21` [ICG-diSA, 2-((1E,3E,5E,7E)-7-(1,1-dimethyl-3-(3-(octadecylamino)-3-oxopropyl)-1,3-dihydro-2H-benzo[e]indol-2-ylidene)hepta-1,3,5-trien-1-yl)-1,1-dimethyl-3-(3-(octadecylamino)-3-oxopropyl)-1H-benzo[e]indol-3-ium]: the “molar extinction coefficient ε” value is 177760 L/mol/cm.

For the compound `CC1(C)C(/C=C/C=C/C=C/C=C2/N(CCCCS(=O)(=O)[O-])c3ccc4ccccc4c3C2(C)C)=[N+](CCCCS(=O)(=O)[O-])c2ccc3ccccc3c21.[Na+]` [ICG, Indocyanine green, reference compound], the “molar extinction coefficient ε” value was 208980 L/mol/cm.

Turning to `CCCCCCCCCCCCCCCCCC(=O)OCC(COP(=O)([O-])OCCNC(=O)CC[N+]1=C(/C=C/C=C/C=C/C=C2/N(CCC(=O)NCCOP(=O)(O)OCC(COC(=O)CCCCCCCCCCCCCCCCC)OC(=O)CCCCCCCCCCCCCCCCC)c3ccc4ccccc4c3C2(C)C)C(C)(C)c2c1ccc1ccccc21)OC(=O)CCCCCCCCCCCCCCCCC` (centres unmarked) [ICG-diDSPE, 2-(3-(2-((1E,3E,5E,7E)-7-(3-(3-((2-(((2,3-bis(stearoyloxy)propoxy)(hydroxy)phosphoryl)oxy)ethyl)amino)-3-oxopropyl)-1,1-dimethyl-1,3-dihydro-2H-benzo[e]indol-2-ylidene)hepta-1,3,5-trien-1-yl)-1,1-dimethyl-1H-benzo[e]indol-3-ium-3-yl)propanamide)ethyl (2,3-bis(stearoyloxy)propyl) phosphate], the “molar extinction coefficient ε” value is 199840 L/mol/cm.

Turning to `CCCCCCCC/C=C\CCCCCCCC(=O)OCC(COP(=O)([O-])OCCNC(=O)CC[N+]1=C(/C=C/C=C/C=C/C=C2/N(CCC(=O)NCCOP(=O)(O)OCC(COC(=O)CCCCCCC/C=C\CCCCCCCC)OC(=O)CCCCCCC/C=C\CCCCCCCC)c3ccc4ccccc4c3C2(C)C)C(C)(C)c2c1ccc1ccccc21)OC(=O)CCCCCCC/C=C\CCCCCCCC` (centres unmarked) [ICG-diDOPE, 2-(3-(2-((1E,3E,5E,7E)-7-(3-(3-((2-(((2,3-bis(oleoyloxy)propoxy)(hydroxy)phosphoryl)oxy)ethyl)amino)-3-oxopropyl)-1,1-dimethyl-1,3-dihydro-2H-benzo[e]indol-2-ylidene)hepta-1,3,5-trien-1-yl)-1,1-dimethyl-1H-benzo[e]indol-3-ium-3-yl)propanamide)ethyl(2,3-bis(oleoyloxy)propyl) phosphate], the “molar extinction coefficient ε” value was 161100 L/mol/cm.
